Experimental data as given in patent publication US20130303518A1, “Methods of Inhibiting the Catalytic Activity of a Protein Kinase and of Treating a Protein Kinase Related Disorder” (JIANGSU HANSOH PHARMACEUTICAL CO., LTD., priority 2007, published 2013).

How the values were obtained:
Flt1 = target: T1, Flt1 (Homo sapiens, UniProt P17948); assay: Inhibition of receptor tyrosine kinases activity assay; assay type: biochemical
T1 construct: purchased invitrogen PV3666

Ret = target: T2, Ret (Homo sapiens, UniProt P07949); assay: as above; assay type: biochemical
T2 construct: purchased invitrogen PV3819
T2 sequence (P07949 29-1114): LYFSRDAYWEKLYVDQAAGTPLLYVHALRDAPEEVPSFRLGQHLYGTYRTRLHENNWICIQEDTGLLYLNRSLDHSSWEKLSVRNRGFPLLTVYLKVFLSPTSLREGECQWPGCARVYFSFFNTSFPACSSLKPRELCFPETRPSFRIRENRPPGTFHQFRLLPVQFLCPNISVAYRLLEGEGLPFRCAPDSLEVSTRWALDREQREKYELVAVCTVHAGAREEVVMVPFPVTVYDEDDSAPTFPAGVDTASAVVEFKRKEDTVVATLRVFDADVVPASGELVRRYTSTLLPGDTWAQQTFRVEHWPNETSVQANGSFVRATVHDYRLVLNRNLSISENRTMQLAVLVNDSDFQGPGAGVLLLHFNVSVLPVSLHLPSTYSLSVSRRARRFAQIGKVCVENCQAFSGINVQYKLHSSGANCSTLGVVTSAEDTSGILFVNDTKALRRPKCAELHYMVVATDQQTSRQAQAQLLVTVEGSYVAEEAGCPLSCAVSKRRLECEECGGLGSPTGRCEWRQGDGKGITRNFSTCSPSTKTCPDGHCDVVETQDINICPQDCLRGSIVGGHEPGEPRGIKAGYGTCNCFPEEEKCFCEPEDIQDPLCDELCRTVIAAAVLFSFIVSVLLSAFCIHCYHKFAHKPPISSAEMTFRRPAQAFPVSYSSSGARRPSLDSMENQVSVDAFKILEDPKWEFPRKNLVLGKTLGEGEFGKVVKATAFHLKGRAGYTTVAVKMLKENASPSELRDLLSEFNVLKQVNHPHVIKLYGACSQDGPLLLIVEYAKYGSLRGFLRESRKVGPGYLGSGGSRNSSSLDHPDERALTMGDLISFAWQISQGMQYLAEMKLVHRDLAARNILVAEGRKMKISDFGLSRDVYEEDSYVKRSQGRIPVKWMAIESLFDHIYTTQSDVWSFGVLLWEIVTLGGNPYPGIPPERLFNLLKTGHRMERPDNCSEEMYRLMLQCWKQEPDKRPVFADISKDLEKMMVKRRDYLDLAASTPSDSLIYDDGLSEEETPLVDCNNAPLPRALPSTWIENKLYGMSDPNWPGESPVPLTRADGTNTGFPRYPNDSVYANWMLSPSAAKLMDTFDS

[1] = test system: HUVEC (human umbilical vein endothelial cells); assay: Inhibition of cancer cell proliferation assay (SRB); assay type: cell-based; details: mean ± SD, 72 hours
From the text: (§1) The cellular assay described here is to test the proliferation inhibition activity of the compound of Example 53 on the cancer cells in vitro using Sulforhodamine B (SRB) method. The cancer cells include HUVEC (human umbilical vein endothelial cells), HT-29 (human colon cancer cells), Mo7e (human megakaryoblastic leukemia cell line), A431 (human epidermoid carcinoma cells), NCI—H526 (small-cell lung cancer cells), and SK—BR-3 (human breast cancer cells).
HUVEC cancer cell: American Type Culture Collection, Cat. No. CRL-1730
(§2) The following in vitro assay is to determine the activity of the tested compound for inhibiting the proliferation of the cancer cells mentioned above. The activity is represented by the IC50 value. The general procedures of the assay are given as follows: Cancer cells mentioned above were chosen and seeded to 96-well cell culture plate at a suitable concentration (e.g., 5000 cells/mL medium). These cells then were incubated in carbon dioxide (CO2) incubator until they reached 85% confluency. […] 72 hours later, the activity of the tested compound for inhibiting the cell proliferation was determined by using Sulforhodamine B (SRB) method. IC50 value on tested cells is calculated by the data of inhibition rates of serial concentrations of the tested compound.

[2] = test system: HT-29 (human colon cancer cells); assay: as above; assay type: cell-based; details: mean ± SD, 72 hours
From the text: as §1
HT-29 cancer cell: Cell Bank, Chinese Academy of Sciences, TCHu103;
as §2

[3] = test system: A431 (human epidermoid carcinoma cells); assay: as above; assay type: cell-based; details: A-431, 72 h, read-out: IC50 A431
From the text: (§3) The cancer cells include HUVEC (human umbilical vein endothelial cells), HT-29 (human colon cancer cells), Mo7e (human megakaryoblastic leukemia cell line), A431 (human epidermoid carcinoma cells), NCI—H526 (small-cell lung cancer cells), and SK—BR-3 (human breast cancer cells).
(§4) The following in vitro assay is to determine the activity of the tested compound for inhibiting the proliferation of the cancer cells mentioned above. The activity is represented by the IC50 value. The general procedures of the assay are given as follows: Cancer cells mentioned above were chosen and seeded to 96-well cell culture plate at a suitable concentration (e.g., 5000 cells/mL medium). […] Then, the cell culture medium was replaced by fresh one with tested compound added in it at serial concentrations (general 6 to 7 concentrations). Then the cells were put back to the incubator and cultured continuously. 72 hours later, the activity of the tested compound for inhibiting the cell proliferation was determined by using Sulforhodamine B (SRB) method. IC50 value on tested cells is calculated by the data of inhibition rates of serial concentrations of the tested compound.

[4] = test system: NCI—H526 (small-cell lung cancer cells); assay: as above; assay type: cell-based; details: Homo sapiens, NCI-H526, 72 h, read-out: IC50 NCI-H526
From the text: as §3, §4

[5] = test system: SK—BR-3 (human breast cancer cells); assay: as above; assay type: cell-based; details: SK-BR-3, 72 h, read-out: IC50 SK-BR-3
From the text: as §3, §4

HT-29(colon cancer) = assay: Anticancer pharmacodynamic assay in vivo, xenograft; set-up: species or system nude mice; details: for T/C (%): relative tumor volume (%): HT-29 xenograft, d0-20
From the text: (§5) The test method and steps are the same with those disclosed in “PHARMACODYNAMIC ASSAYS IN VIVO” of the present invention. The therapeutic effects of the compound of Example 53 against xenografts of colon cancer, non-small cell lung cancer, liver cancer, melanoma, renal cancer in nude mice are estimated.
HT-29(colon cancer): Cell Bank, Chinese Academy of Sciences, TCHu103;
(§6) Nude mice were hypodermic inoculated HT-29 human colon cancer cell. After tumors grew to 100-300 mm^3, mice were randomly divided into teams (d0). The volume of tumors and weigh of the mice were measured for 2-3 times per week. The calculation formula of the volume of tumor (V) is: V=½×a×b^2, a: length of tumor, b: width of tumor.

[6] = test system: Calu-3(non-small cell lung cancer); assay: as above; set-up: species or system nude mice; details: for T/C (%): relative tumor volume (%) / Note: PR (partial regression), animals: Calu-3 xenograft, d0-20; for Note: PR (partial regression), animals: treatment group n = 6
From the text: as §5
Calu-3(non-small cell lung cancer): Cell Bank, Chinese Academy of Sciences, TCHu157;
as §6

[7] = mean ± SD, 20 μM ATP, 25° C., 45 minutes

T1 sequence (P17948 27-1338): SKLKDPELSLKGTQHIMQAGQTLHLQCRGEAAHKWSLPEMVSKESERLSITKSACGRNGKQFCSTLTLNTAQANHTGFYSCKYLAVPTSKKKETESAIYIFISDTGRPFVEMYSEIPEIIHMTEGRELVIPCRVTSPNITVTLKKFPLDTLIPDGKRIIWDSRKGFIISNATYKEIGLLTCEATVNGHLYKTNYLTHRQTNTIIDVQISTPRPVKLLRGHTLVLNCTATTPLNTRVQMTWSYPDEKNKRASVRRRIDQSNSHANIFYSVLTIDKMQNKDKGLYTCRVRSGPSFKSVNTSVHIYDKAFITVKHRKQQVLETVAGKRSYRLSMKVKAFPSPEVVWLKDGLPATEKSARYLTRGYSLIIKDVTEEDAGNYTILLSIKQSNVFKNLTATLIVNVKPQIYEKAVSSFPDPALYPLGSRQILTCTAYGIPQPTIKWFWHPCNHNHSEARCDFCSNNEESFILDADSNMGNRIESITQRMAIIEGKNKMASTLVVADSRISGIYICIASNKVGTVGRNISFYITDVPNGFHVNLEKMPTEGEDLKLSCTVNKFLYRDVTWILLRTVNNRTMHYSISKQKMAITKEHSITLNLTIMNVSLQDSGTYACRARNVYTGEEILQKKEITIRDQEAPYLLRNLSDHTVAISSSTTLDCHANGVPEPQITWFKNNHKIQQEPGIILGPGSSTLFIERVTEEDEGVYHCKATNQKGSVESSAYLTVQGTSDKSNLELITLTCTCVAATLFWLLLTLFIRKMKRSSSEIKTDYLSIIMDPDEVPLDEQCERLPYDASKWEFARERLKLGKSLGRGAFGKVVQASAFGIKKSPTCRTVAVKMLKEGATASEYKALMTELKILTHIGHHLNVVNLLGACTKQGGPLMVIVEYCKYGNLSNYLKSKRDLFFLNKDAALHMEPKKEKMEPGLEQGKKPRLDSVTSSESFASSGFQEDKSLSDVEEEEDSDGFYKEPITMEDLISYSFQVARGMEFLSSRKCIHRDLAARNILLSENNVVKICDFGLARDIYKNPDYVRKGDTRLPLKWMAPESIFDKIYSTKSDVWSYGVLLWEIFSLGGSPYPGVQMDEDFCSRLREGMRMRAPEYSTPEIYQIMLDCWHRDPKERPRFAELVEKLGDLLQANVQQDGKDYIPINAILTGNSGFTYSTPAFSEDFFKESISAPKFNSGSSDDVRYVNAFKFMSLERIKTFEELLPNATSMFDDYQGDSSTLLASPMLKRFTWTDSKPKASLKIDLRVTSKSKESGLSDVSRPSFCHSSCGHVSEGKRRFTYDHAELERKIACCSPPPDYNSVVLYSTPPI

Cc1c(/C=C2\C(=O)Nc3ccc(F)cc32)[nH]c2c1C(=O)N(C[C@H](O)CN1CCOCC1)CCC2 [Example 53, (R,Z)-2-(5-Fluoro-2-oxo-1,2-dihydro-indol-3-ylidenemethyl)-5-(2-hydroxy-3-morpholin-4-yl-propyl)-3-methyl-5,6,7,8-tetrahydro-1H-pyrrolo[3,2-c]azepin-4-one]
inhibition of kinase activity (in words) (Flt1; Flt1): obvious activity | IC50 (Flt1; [7]): 30.9 ± 5.7 nM | inhibition of kinase activity (in words) (Ret; Ret): obvious activity | IC50 (Ret; [7]): 182 ± 6.4 nM | IC50 [1]: 1100 nM | IC50 [2]: 2400 ± 1600 nM | IC50 [3]: 2000 ± 500 nM | IC50 [4]: 8300 ± 300 nM | IC50 [5]: 7800 ± 1500 nM | anticancer activity against xenograft (in words) (HT-29(colon cancer); HT-29 xenograft in nude mice): obvious anticancer activity | T/C (%): relative tumor volume (%) (HT-29(colon cancer); 15 mg/kg p.o): 49.4% | T/C (%): relative tumor volume (%) (HT-29(colon cancer); 30 mg/kg p.o): 48.5% | T/C (%): relative tumor volume (%) (HT-29(colon cancer); 60 mg/kg p.o): 31.6% | anticancer activity against xenograft (in words) ([6]; Calu-3 xenograft in nude mice): obvious anticancer activity | T/C (%): relative tumor volume (%) ([6]; 15 mg/kg p.o): 26.3% | T/C (%): relative tumor volume (%) ([6]; 30 mg/kg p.o): 14.7% | Note: PR (partial regression), animals ([6]; 30 mg/kg p.o): 3/6(PR) | T/C (%): relative tumor volume (%) ([6]; 60 mg/kg p.o): 16.1% | Note: PR (partial regression), animals ([6]; 60 mg/kg p.o): 3/6(PR)
